Results taken from the supplement of paper PMC10627819.

Experiments:
S. pneumoniae D39V [1] = experiment: fitness (endpoint OD595 vs no drug) (fraction); higher = more growth
Summary of the method: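 Bacterial growth was followed in 384-well plates seeded at OD595 0.01, with 30 µl per well, or 55 µl for S. pneumoniae, in TSB, LB Lennox or CY at 37 °C. OD595 was read every 30 min for 14 h, and each reading had the first reading subtracted as background. Fitness is the background-corrected optical density at entry into stationary phase divided by the robust mean of the no-drug control wells. This ratio is capped at 1.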

B. subtilis 168 = experiment: Bliss interaction score (quartile over a dose matrix) (fitness difference); higher = more antagonism (negative = synergy)
Summary of the method: (§1)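 Fitness was derived from optical density at entry into stationary phase, divided by the robust mean of the no-drug wells on the same plate. That reading was taken as OD595, and the ratio was capped at 1. Single-drug fitness was inferred from the combination data. The Bliss score, observed fitness minus the expected product of single-drug fitness, was summarised as quartiles over technical, biological and donor/recipient replicates.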

S. aureus DSM 20231 = experiment: as above
Summary of the method: as §1

S. aureus Newman = experiment: as above
Summary of the method: as §1

S. pneumoniae D39V [2] = experiment: as above
Summary of the method: as §1
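For Bliss interaction score (quartile over a dose matrix) in this document: first quartile when negative (synergy) and third quartile when positive (antagonism).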

O=C1CN(/N=C/c2ccc([N+](=O)[O-])o2)C(=O)N1 [Nitrofurantoin] + COc1ccc(C[C@H](N)C(=O)N[C@H]2[C@@H](O)[C@H](n3cnc4c(N(C)C)ncnc43)O[C@@H]2CO)cc1 [Puromycin]
fitness, S. pneumoniae D39V [1]
Conditions	partner 1 µg/mL	partner 2 µg/mL	partner 4 µg/mL
first compound 1.285 µg/mL	0.989	0.966	0.808
first compound 2.57 µg/mL	0.947	0.901	0.742

fitness, S. pneumoniae D39V [1], one replicate
Conditions	first compound 2 µg/mL	first compound 4 µg/mL	first compound 5.14 µg/mL	first compound 8 µg/mL
partner 1 µg/mL	0.901	0.899	0.905	0.652
partner 2 µg/mL	0.821	0.915	0.88	0.711
partner 4 µg/mL	0.757	0.767	0.592	0.38

Conditions	Bliss interaction score
B. subtilis 168	0.1
S. aureus DSM 20231	0.0289
S. aureus Newman	0.098
S. pneumoniae D39V [2]	-0.135

O=C1CN(/N=C/c2ccc([N+](=O)[O-])o2)C(=O)N1 [Nitrofurantoin] + C[n+]1ccc(-c2cc[n+](C)cc2)cc1 [Paraquat]
fitness, S. pneumoniae D39V [1]
Conditions	partner 1.5 µg/mL	partner 3 µg/mL	partner 6 µg/mL
first compound 1.285 µg/mL	0.949	0.959	0.941
first compound 2.57 µg/mL	0.961	0.953	0.945

fitness, S. pneumoniae D39V [1], one replicate
Conditions	first compound 2 µg/mL	first compound 4 µg/mL	first compound 5.14 µg/mL	first compound 8 µg/mL
partner 1.5 µg/mL	0.988	0.983	0.909	0.859
partner 3 µg/mL	0.965	0.968	0.927	0.871
partner 6 µg/mL	0.981	≥ 1	0.894	0.909

Conditions	Bliss interaction score
B. subtilis 168	0.0514
S. aureus DSM 20231	0.0244
S. aureus Newman	0.0529
S. pneumoniae D39V [2]	0.0462

O=C1CN(/N=C/c2ccc([N+](=O)[O-])o2)C(=O)N1 [Nitrofurantoin] + Cc1cc(NS(=O)(=O)c2ccc(N)cc2)no1 [Sulfamethoxazol]
fitness, S. pneumoniae D39V [1]
Conditions	partner 1 µg/mL	partner 2 µg/mL	partner 4 µg/mL
first compound 1.285 µg/mL	0.952	0.957	0.91
first compound 2.57 µg/mL	0.942	0.948	0.944

fitness, S. pneumoniae D39V [1], one replicate
Conditions	first compound 2 µg/mL	first compound 4 µg/mL	first compound 5.14 µg/mL	first compound 8 µg/mL
partner 1 µg/mL	0.937	0.944	0.92	0.805
partner 2 µg/mL	0.929	0.934	0.929	0.833
partner 4 µg/mL	0.842	0.859	0.927	0.768

Conditions	Bliss interaction score
B. subtilis 168	0.0955
S. aureus DSM 20231	-0.0311
S. aureus Newman	0.0591
S. pneumoniae D39V [2]	0.049

O=C1CN(/N=C/c2ccc([N+](=O)[O-])o2)C(=O)N1 [Nitrofurantoin] + Cc1onc(-c2ccccc2)c1C(=O)N[C@@H]1C(=O)N2[C@@H]1SC(C)(C)[C@@H]2C(=O)O [Oxacillin]
fitness, S. pneumoniae D39V [1]
Conditions	first compound 1.285 µg/mL	first compound 2 µg/mL	first compound 2.57 µg/mL	first compound 4 µg/mL	first compound 8 µg/mL
partner 0.01 µg/mL	0.955	0.928	0.958	0.932	0.802
partner 0.02 µg/mL	0.959	0.873	0.944	0.864	0.798
partner 0.04 µg/mL	0.761	0.475	0.754	0.531	0.53

S. pneumoniae D39V [1], first compound 5.14 µg/mL, one replicate
Conditions	fitness
partner 0.01 µg/mL	0.955
partner 0.02 µg/mL	0.967
partner 0.04 µg/mL	0.795

Conditions	Bliss interaction score
B. subtilis 168	0.0329
S. aureus DSM 20231	-0.0421
S. aureus Newman	0.0474
S. pneumoniae D39V [2]	0.162

O=C1CN(/N=C/c2ccc([N+](=O)[O-])o2)C(=O)N1 [Nitrofurantoin] + Cn1nnc(-c2ccc(-c3ccc(N4C[C@H](CO)OC4=O)cc3F)cn2)n1 [Tedizolid]
fitness, S. pneumoniae D39V [1]
Conditions	first compound 1.285 µg/mL	first compound 2 µg/mL	first compound 2.57 µg/mL	first compound 4 µg/mL	first compound 8 µg/mL
partner 0.03125 µg/mL	–	0.948	–	0.957	0.951
partner 0.0625 µg/mL	–	0.893	–	0.915	0.859
partner 0.125 µg/mL	0.805	0.767	0.812	0.775	0.771
partner 0.25 µg/mL	0.724	–	0.676	–	–
partner 0.5 µg/mL	0.258	–	0.217	–	–

S. pneumoniae D39V [1], first compound 5.14 µg/mL, one replicate
Conditions	fitness
partner 0.125 µg/mL	0.791
partner 0.25 µg/mL	0.589
partner 0.5 µg/mL	0.18

Conditions	Bliss interaction score
B. subtilis 168	-0.0546
S. aureus DSM 20231	-0.0543
S. aureus Newman	-0.0562
S. pneumoniae D39V [2]	-0.141

C/C(=C\C(=O)OCCCCCCCCC(=O)O)C[C@@H]1OC[C@H](C[C@@H]2O[C@H]2[C@@H](C)[C@H](C)O)[C@@H](O)[C@H]1O [Pseudomonic acid] + CO[C@H]1/C=C/O[C@@]2(C)Oc3c(C)c(O)c4c(O)c(c(/C=N/N5CCN(C)CC5)c(O)c4c3C2=O)NC(=O)/C(C)=C\C=C\[C@H](C)[C@H](O)[C@@H](C)[C@@H](O)[C@@H](C)[C@H](OC(C)=O)[C@@H]1C [Rifampicin]
S. pneumoniae D39V [1], partner 0.025 µg/mL, one replicate
Conditions	fitness
first compound 0.03 µg/mL	0.872
first compound 0.06 µg/mL	0.79
first compound 0.12 µg/mL	0.742

S. pneumoniae D39V [1], first compound 0.12 µg/mL
Conditions	fitness
partner 0.05 µg/mL	0.608
partner 0.2 µg/mL	0.136

Conditions	Bliss interaction score
B. subtilis 168	0.0416
S. aureus DSM 20231	0.0229
S. aureus Newman	-0.0134
S. pneumoniae D39V [2]	0.14
